Laboratory results: PMC5518096, “Use of a special Brazilian red-light emitting railroad worm Luciferase in bioassays of NEK7 protein Kinase and Creatine Kinase” (BMC Biochemistry, 2017)

Experiments:
Test in all cases: ATP consumption, coupled red luciferase luminescence
Assay type in all cases: biochemical
NEK7 (6xHis-NEK7) = NEK7 (6xHis-NEK7) (Homo sapiens, UniProt Q8TDX7); conditions: 1 uM ATP, protein substrates NEK9(764-976), MAT1 or CC2D1A(501-940), 4 mM MgSO4, pH 8, 37 °C
[1] = target: T1, sMtCK (6xHis-sarcomeric creatine kinase, pUS01) (Homo sapiens, UniProt P17540); conditions: 5 mM creatine, 50 uM ATP, 4 mM MgSO4, pH 8, 37 °C, 30 min
T1 construct: gene CKMT2; 6xHis, pET3b plasmid pUS01 (Schlattner), E. coli BL21(DE3)

[2] = target: T2, uMtCK (6xHis-ubiquitous creatine kinase, pUS04) (Homo sapiens, UniProt P12532); conditions: 5 mM creatine, 50 uM ATP, 4 mM MgSO4, pH 8, 37 °C, 30 min
T2 construct: gene CKMT1A; 6xHis, pET3b plasmid pUS04 (Schlattner), E. coli BL21(DE3)

NEK7 (6xHis-NEK7), sequence (Q8TDX7 whole entry): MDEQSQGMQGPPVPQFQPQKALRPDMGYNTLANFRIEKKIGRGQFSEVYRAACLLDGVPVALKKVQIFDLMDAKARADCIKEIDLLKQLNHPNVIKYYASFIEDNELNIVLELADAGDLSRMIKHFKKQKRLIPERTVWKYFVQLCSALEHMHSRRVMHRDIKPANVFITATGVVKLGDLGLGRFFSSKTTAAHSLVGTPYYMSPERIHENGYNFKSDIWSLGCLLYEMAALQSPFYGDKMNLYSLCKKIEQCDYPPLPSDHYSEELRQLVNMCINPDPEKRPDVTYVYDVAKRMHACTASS

| Compound | ATP consumption, coupled red luciferase luminescence (NEK7 (6xHis-NEK7)) | ATP consumption, coupled red luciferase luminescence [1] | ATP consumption, coupled red luciferase luminescence [2] |
| --- | --- | --- | --- |
| Nc1ncnc2c1ncn2[C@@H]1O[C@H](COP(=O)(O)OP(=O)(O)OP(=O)(O)O)[C@@H](O)[C@H]1O [ATP] | ATP consumption by NEK7, due to its phosphorylation of substrate proteins/domains | ATP was consumed only in the presence of creatine kinase and creatine | ATP was consumed only in the presence of creatine kinase and creatine |
| CN(CC(=O)O)C(=N)N [creatine] |  | when creatine was added, the light emission was significantly decreased |  |
